Results as given in patent US11141406B2, “Pharmaceutical compounds” (REVIRAL LIMITED, priority 2017, dated 2021).

Tests used:
RSV A2 VR-1540 = experiment: RSV plaque reduction assay, typical conditions (HEp-2 cells); type: cell-based; conditions: human respiratory syncytial virus; for IC90: typical protocol, read-out: RSV Plaque Reduction Assay Strain A2 IC90; for IC50: †: typical protocol, n = 1, read-out: RSV Plaque Reduction Assay Strain A2 IC50
Method: The plaque reduction assay was typically performed as follows. HEp-2 cells (ATCC, CCL23) were passaged in flasks and seeded in 96-well plates in DMEM containing antibiotics and supplemented with 10% FBS. During inoculation and subsequent incubation, cells were cultured in DMEM containing 3% FBS. 100 plaque forming unit (PFU)/well of RSV (RSV A2 VR-1540) was mixed with ten serial dilutions of compound. Subsequently, 100 μL of the virus/compound mixtures was added to confluent HEp-2 cell monolayers. The cells and virus/compound mixtures were incubated at 35° C. in a humidified 5% CO2 incubator for 1 day.
Cells were washed twice with PBS before adding 50% v % v EtOH/MeOH, and then stored at −20° C. On the day of the staining, fixative was first removed from the plates. Plates were washed 3× with PBS. A pre-titrated amount of the primary antibody was added in 60 μL PBS/2% milk powder, and plates incubated for 1 h at rt. The plates were washed 3× with PBS/0.05% Tween20 before addition of goat anti-mouse horse radish peroxidase in 60 μL PBS/2% milk powder, and incubated for 1 h at rt. Following three wash steps with PBS/0.05% Tween20, 60 μL ready-to-use TrueBlue was added and plates were incubated at it for 10-15 min before adding MilliQ water. Plates were washed once with water, incubated for 30-60 min and after removal of water, air-dried in the dark.
(§1) Plates were scanned and analyzed using the Immunospot S6 UV analyzer, which is equipped with BioSpot analysis software for counting immunostained plaques (virospots). Plaque counts were used to calculate % infection relative to the mean of the spot count (SC) in the virus control wells for RSV. IC50/IC90 values were calculated as 50% or 90% reduction in signal, respectively, by interpolation of inhibition curves fitted with a 4-parameter nonlinear regression with a variable slope in GraphPad 5.0 (Prism). Alternatively, where noted the plaque reduction assay was performed as follows. Hep G2 cells (ECACC, 85011430) were passaged in flasks and seeded in 12-well plates in DMEM containing antibiotics and supplemented with 10% FBS, 24 h prior to inoculation. During inoculation and subsequent incubation, cells were cultured in DMEM containing 2% FBS. 75 plaque forming unit (PFU)/well of RSV (RSV A2, 0709161v) was mixed with 8 serial dilutions of compound. Subsequently, 200 μL of the virus/compound mixtures was added to confluent Hep G2 cell monolayers, for a 2 h infection, with manual shaking every 15 min. Infectious supernatant was then removed and replaced with 2 mL of overlay, comprising 4 parts of DMEM+2% FBS and 1 part 4% CMC, with 0.25% DMSO. The cells were incubated at 37° C. in a humidified 5% CO2 incubator for 5 days.

RSV A2, 0709161v = experiment: RSV plaque reduction assay, alternative conditions (Hep G2 cells); type: cell-based; conditions: human respiratory syncytial virus, HepG2, mean of at least 2 independent experiments, read-out: RSV Plaque Reduction Assay Strain A2 IC50
Method: as §1
Overlay was removed, and cells were washed with PBS before fixing with a mixture of 75% acetone 25% methanol for 3 minutes and replacing with fresh PBS. […] Staining was carried out whilst shaking at 37° C. First the plates were blocked with 500 uL PBS-T/2% milk powder per well, for 1 hr. This was then replaced with 250 uL PBS-T/2% milk powder containing a pre-titrated amount of the primary antibody (ab1128), for 90 min. The plates were washed 3×5 min with PBS-T, before addition of rabbit anti-goat horse radish peroxidase (AP106P) in 250 μL PBS-T/2% milk powder, and incubated for 1 hr. […]
Plates were scanned and analysed using the Immunospot S6 Macro analyzer, which is equipped with BioSpot analysis software for counting immunostained plaques. […]

SMILES | IC90 (RSV A2 VR-1540) [nM] | IC50 (RSV A2 VR-1540) [nM] | IC50 (RSV A2, 0709161v) [nM]
CS(=O)(=O)CCCn1c(CN2C(=O)C(F)(F)c3ccccc32)nc2cc(Cl)ccc21 [Compound 5, 1-{[5-Chloro-1-(3-methanesulfonylpropyl)-1H-1,3-benzodiazol-2-yl]methyl}-3,3-difluoro-2,3-dihydro-1H-indol-2-one] | 4.4 | 1.4 | 
CCS(=O)(=O)N1CCC(n2c(CN3C(=O)C(F)(F)c4ccccc43)nc3cc(Cl)ccc32)CC1 [Compound 9, 1-({5-Chloro-1-[1-(ethanesulfonyl)piperidin-4-yl]-1H-1,3-benzodiazol-2-yl}methyl)-3,3-difluoro-2,3-dihydro-1H-indol-2-one] |  |  | 12.6
O=C1N(Cc2nc3cc(Cl)ccc3n2C2CCOCC2)c2ccccc2C1(F)F [Compound 10, 1-{[5-Chloro-1-(oxan-4-yl)-1H-1,3-benzodiazol-2-yl]methyl}-3,3-difluoro-2,3-dihydro-1H-indol-2-one] | 53 | 6.4 | 
CC(C)CCn1c(CN2C(=O)C(F)(F)c3ccccc32)nc2cc(CN)ccc21 [Compound 13, 1-{[5-(Aminomethyl)-1-(3-methylbutyl)-1H-1,3-benzodiazol-2-yl]methyl}-3,3-difluoro-2,3-dihydro-1H-indol-2-one] |  |  | 4.1
